# In patent publication US10865203B2, “Ligands selective to alpha 6 subunit-containing GABAA receptors and their methods of use” (UWM Research Foundation, Inc., priority 2015, dated 2020):
# Entries after “also recorded” stand apart in the source; their conditions may differ.
# Assays:
# [1] = Microsomal stability assay, mouse liver microsomes; format: in vitro ADME; details: 10 μM test compound, 0.5 mg/mL protein, 37° C.
# Description: (§1) 4 μL of 1 mM test compound at a final concentration of 10 μM dissolved in DMSO/ACN/Methanol/Ethanol was preincubated at 37° C. for 5 minutes on a digital heating shaking dry bath (Fischer scientific, Pittsburgh, Pa.) in a mixture containing 282 μL of water, 80 μL of phosphate buffer (0.5 M, pH 7.4), 20 μL of NADPH Regenerating System Solution A (BD Bioscience, San Jose, Calif.) and 4 μL of NADPH Regenerating System Solution B (BD Bioscience, San Jose, Calif.) in a total volume of 391.2 μL. Following preincubation, the reaction was initiated by addition of 8.8 μL of either human liver microsomes (BD Gentest, San Jose, Calif.), mouse liver microsomes (Life technologies, Rockford, Ill.), at a protein concentration of 0.5 mg/mL. Aliquots of 50 μL were taken at time intervals of 0 (without microsomes), 10, 20, 30, 40, 50 and 60 minutes. Each aliquot was added to 100 μL of cold acetonitrile solution containing 1 μM/2 μM internal standard. This was followed by sonication for 10 seconds and centrifugation at 10,000 rpm for 5 minutes. 100 μL of the supernatant was transferred into Spin-X HPLC filter tubes (Corning Incorporated, NY) and centrifuged at 13,000 rpm for 5 minutes. […] The ratio of the peak areas of the internal standard and test compound was calculated for every time point and the natural log of the ratio were plotted against time to determine the linear slope (k). […] All experiments were repeated three times in duplicates.
# [2] = Microsomal stability assay, human liver microsomes; format: in vitro ADME; details: 10 μM test compound, 0.5 mg/mL protein, 37° C.
# Description: as §1
# α6β3γ2 receptor = biological target: T1, α6β3γ2 receptor (Rattus norvegicus, UniProt P30191+P63079); test: Electrophysiology in Xenopus oocytes, modulation of GABA currents; format: cell-based; details: modulation of GABA EC3 currents
# T1 construct: expressed in transfected cells; host or cells: Xenopus laevis oocytes injected with subunit mRNA (3:1:5)
# T1 sequence (P30191 20-453): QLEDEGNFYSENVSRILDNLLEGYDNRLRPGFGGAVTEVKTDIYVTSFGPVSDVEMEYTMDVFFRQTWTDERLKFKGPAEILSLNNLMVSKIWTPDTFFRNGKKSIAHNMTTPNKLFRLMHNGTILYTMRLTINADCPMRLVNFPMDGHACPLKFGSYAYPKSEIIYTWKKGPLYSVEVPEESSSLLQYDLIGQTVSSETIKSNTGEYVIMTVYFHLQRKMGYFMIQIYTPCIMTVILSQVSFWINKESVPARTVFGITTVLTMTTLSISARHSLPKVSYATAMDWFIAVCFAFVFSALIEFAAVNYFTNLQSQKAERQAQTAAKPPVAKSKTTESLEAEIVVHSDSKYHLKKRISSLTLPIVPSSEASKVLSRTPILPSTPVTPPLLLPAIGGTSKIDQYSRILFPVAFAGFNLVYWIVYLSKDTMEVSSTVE
# T1 sequence (P63079 26-473): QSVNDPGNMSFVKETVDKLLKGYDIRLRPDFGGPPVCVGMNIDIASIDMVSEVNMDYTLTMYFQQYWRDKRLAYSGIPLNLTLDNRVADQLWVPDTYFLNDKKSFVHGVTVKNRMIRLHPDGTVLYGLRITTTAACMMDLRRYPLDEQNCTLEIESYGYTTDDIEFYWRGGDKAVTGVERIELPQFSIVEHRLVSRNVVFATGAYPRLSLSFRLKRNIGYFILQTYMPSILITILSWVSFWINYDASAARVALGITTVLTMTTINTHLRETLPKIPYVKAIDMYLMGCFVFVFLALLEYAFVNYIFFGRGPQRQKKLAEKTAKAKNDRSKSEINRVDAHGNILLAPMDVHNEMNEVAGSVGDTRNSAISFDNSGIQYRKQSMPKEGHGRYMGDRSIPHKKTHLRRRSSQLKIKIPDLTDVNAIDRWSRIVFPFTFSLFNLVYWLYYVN
# T1 sequence (P18508 39-466 partner): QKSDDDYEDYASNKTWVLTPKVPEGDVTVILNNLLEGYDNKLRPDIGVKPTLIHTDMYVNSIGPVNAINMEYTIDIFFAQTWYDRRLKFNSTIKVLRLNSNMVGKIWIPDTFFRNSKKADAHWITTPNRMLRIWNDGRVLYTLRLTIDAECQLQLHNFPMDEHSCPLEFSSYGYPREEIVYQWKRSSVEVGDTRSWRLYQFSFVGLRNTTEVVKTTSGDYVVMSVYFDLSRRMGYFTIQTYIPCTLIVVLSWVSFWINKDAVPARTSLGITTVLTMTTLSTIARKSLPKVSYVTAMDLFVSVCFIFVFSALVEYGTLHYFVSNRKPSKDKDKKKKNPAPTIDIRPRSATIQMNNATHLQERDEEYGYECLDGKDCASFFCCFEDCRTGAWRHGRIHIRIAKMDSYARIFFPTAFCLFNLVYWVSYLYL
# Description: Mature female Xenopus laevis (Nasco, Fort Atkinson, Wis., USA) were anaesthetized in a bath of ice-cold 0.17% Tricain (Ethyl-m-aminobenzoat, Sigma-Aldrich, St. Louis, Mo., USA) before decapitation and transfer of the frog's ovary to ND96 medium (96 mM NaCl, 2 mM KCl, 1 mM MgCl2, 5 mM HEPES; pH 7.5). Following incubation in 1 mg/mL collagenase (Sigma-Aldrich, St. Louis, Mo., USA) for 30 min, stage 5 to 6 oocytes were singled out of the ovary and defolliculated using a platinum wire loop. Oocytes were stored and incubated at 18° C. in NDE medium (96 mM NaCl, 2 mM KCl, 1 mM MgCl2, 5 mM HEPES, 1.8 mM CaCl2; pH 7.5) that was supplemented with 100 U per mL-1 penicillin, 100 μg per mL-1 streptomycin and 2.5 mM pyruvate. Oocytes were injected with an aqueous solution of mRNA. A total of 2.5 ng of mRNA per oocyte was injected. Subunit ratio was 1:1:5 for αxβγ2 (x=1, 2, 3, 5) and 3:1:5 for α4/6β3γ2 and αβδ receptors. Injected oocytes were incubated for at least 36 h before electrophysiological recordings. Oocytes were placed on a nylon-grid in a bath of NDE medium. For current measurements, the oocytes were impaled with two microelectrodes (2-3MΩ), which were filled with 2 M KCl. The oocytes were constantly washed by a flow of 6 mL per min-1 NDE that could be switched to NDE containing GABA and/or drugs. Drugs were diluted into NDE from DMSO solutions resulting in a final concentration of 0.1% DMSO. […] To test for modulation of GABA induced currents by compounds, a GABA concentration that was titrated to trigger 3-5% of the respective maximum GABA-elicited current of the individual oocyte (EC3-5) was applied to the cell together with various concentrations of tested compounds. All recordings were performed at room temperature at a holding potential of −60 mV using a Warner OC-725C TEV (Warner Instrument, Hamden, Conn., USA) or a Dagan CA-1B Oocyte Clamp or a Dagan TEV-200A TEV (Dagan Corporation, Mineapolis, Minn., USA). Data were digitized using a Digidata 1322A or 1550 data acquisition system (Axon Instruments, Union City, Calif., USA), recorded using Clampex 10.5 software (Molecular Devices, Sunnyvale, Calif., USA), and analyzed using Clampfit 10.5 and GraphPad Prism 6.0 (La Jolla, Calif., USA) software. Concentration-response data were fitted using the Hill equation. Data are given as mean±SEM from at least three oocytes of two batches.
# For selected test compounds full dose response curves were recorded in α1-6β3γ2 receptors. For selected compounds, dose response curves in additional receptor subtypes (α1, 4, 6β3δ, α6β1, 2γ2, α1-6β3) were also obtained. For a wider panel of compounds, a two point screening pharmacology was obtained at 1 and 10 μM compound concentrations.
# [3] = tested on: METH-impaired PPI in C57/B6 mice; test: PPI test, methamphetamine-impaired prepulse inhibition; format: in vivo, mouse; details: for rescue of METH-impaired PPI: mice, compound 10 mg/kg i.p. 15 min before METH 2 mg/kg i.p.
# Description: All animal experiments conducted at NTU were approved by the Institutional Animal Care and Use Committee of College of Medicine, National Taiwan University. C57/B6 (8-10 weeks) mice were used for the PPI test and Wistar rats (8-9 weeks) were used in the migraine model. Animals were housed in an animal room with a 12-h light/12-h dark cycle and free access to food and water.
# The PPI test was conducted with a PPI apparatus (SR-LAB, San Diego Instruments, San Diego, Calif.) consisting of a startle chamber equipped with various programming acoustic stimulations. After acclimation, the mouse was gently placed in the startle chamber for a 4 min acclimation period with a background noise of 65 dB, which continued throughout the whole PPI test session. One PPI test session consisted of 4 types of startle trials, including the trial with the startle pulse (115 dB) alone (PULSEALONE; 115 dB, 20 ms), two trials with the startle pulse paired with 71 and 77 dB prepulses, respectively (PREPULSE+PULSE; 71 dB+115 dB and 77 dB+115 dB), and the trial without stimulus (NOSTIM; background 65 dB only). A test session started and ended, respectively, with four NOSTIM trials and four PULSEALONE trials. In between, each of the four types of trials was presented 14 times randomly, that is, 56 trials were given in a test session. The intertrial interval was given randomly from 5 to 20 s. In the PREPULSE+PULSE trial, a 71 or 77 dB prepulse was given 120 ms before the 115 dBpulse. The magnitude of PPI (PPI %) was determined, after summarizing the startle responses in PULSEALONE and PREPULSE+PULSE trials, according to the equation (PULSEALON−PREPULSE+PULSE)/PULSEALONE×100%. The tested compound or vehicle was given to the animal for 15 min, followed by methamphetamine (2 mg/kg). The PPI test was conducted 10 min after injection of methamphetamine. Data were expressed as the mean±S.E.M. Statistical comparisons among groups were analyzed by ANOVA with Tukey post hoc test, and differences between groups were analyzed by Student's t-test. Two-way ANOVA with Bonferroni's post hoc test was used to analyze differences in the time courses of locomotor activity among groups. Differences were considered significant if P<0.05.
# Methamphetamine and apomorphine were dissolved in normal saline for i.p. And s.c. Injections, respectively. Tested compounds and haloperidol, when given by i.p. Injection, were dissolved in a vehicle containing 20% dmso, 20% Cremophor® el (polyoxyethylene castor, sigma-aldrich) and 60% normal saline. Furosemide was dissolved (20 nmole/μL) in dimethylsulfoxide for intra-cerebellar microinjection the i.p. or s.c. Injection volume was 10 mL/kg.
Structure (SMILES),% left after 1 hr. (MLM) [1] [%],Half-life (min) (MLM) [1],% left after 1 hr. (HLM) [2] [%],Half-life (min) (HLM) [2],"half-life at 10 μM ([1]; mouse, liver microsomes, pH 7.4, read-out: Half-life (min) (MLM))","half-life at 10 μM ([2]; human, liver microsomes, pH 7.4, read-out: Half-life (min) (HLM))",selectivity for α6β3γ2 over other αxβ3γ2 receptors (α6β3γ2 receptor),effect of intra-cerebellar furosemide on the rescue of PPI ([3]; furosemide 10 nmol intra-cerebellar microinjection),rescue of METH-impaired PPI [3],rescue of METH-impaired PPI ([3]; listed as C11)
"COc1ccc(-n2nc3c4cc(Cl)ccc4[nH]cc-3c2=O)cn1 [DK-II-18-1, 8-Chloro-2-(6-methoxypyridin-3-yl)-2,5-dihydro-3H-pyrazolo[4,3-c]quinolin-3-one]",85.6 ± 0.12,265 ± 17,91.6 ± 0.10,511 ± 44,–,–,–,–,–,–
"[2H]C([2H])([2H])Oc1ccc(-n2nc3c4ccc(OC)cc4[nH]cc-3c2=O)cn1 [DK-II-60-1, 7-Methoxy-2-(6-methoxy-d3-pyridin-3-yl)-2,5-dihydro-3H-pyrazolo[4,3-c]quinolin-3-one]",92.4 ± 0.12,640 ± 102,92.5 ± 0.12,592.5 ± 96,–,–,–,–,–,–
"[2H]C([2H])([2H])Oc1ccc(-n2nc3c4cc(Cl)ccc4[nH]cc-3c2=O)cc1 [DK-I-93-1, 8-Chloro-2-(4-methoxy-d3-phenyl)-2,5-dihydro-3H-pyrazolo[4,3-c]quinolin-3-one]",85.53 ± 0.07,263 ± 5.96,92.2 ± 0.15,640 ± 126,–,–,–,–,–,–
"[2H]C([2H])([2H])Oc1ccc(-n2nc3c4cc(Cl)ccc4[nH]cc-3c2=O)cn1 [DK-II-59-1, 8-Chloro-2-(6-methoxy-d3-pyridin-3-yl)-2,5-dihydro-3H-pyrazolo[4,3-c]quinolin-3-one]",85.1 ± 0.10,250.62 ± 13,93 ± 0.12,725.8 ± 146,–,–,–,–,–,–
"COc1ccc(-n2nc3c4cc(Cl)ccc4[nH]cc-3c2=O)cc1 [Compound 11, 8-Chloro-2-(4-methoxyphenyl)-2,5-dihydro-3H-pyrazolo[4,3-c]quinolin-3-one]",69.2 ± 0.15,–,72.5 ± 0.11,–,116 ± 5.2,135 ± 5,strongly modulates other GABAA receptor subtypes,prevented,effective; also recorded: significantly rescued,significantly rescued
"COc1ccc2c3nn(-c4ccc(OC)nc4)c(=O)c-3c[nH]c2c1 [DK-II-13-1, 7-Methoxy-2-(6-methoxypyridin-3-yl)-2,5-dihydro-3H-pyrazolo[4,3-c]quinolin-3-one]",74.77 ± 0.12,139.2 ± 5.8,93 ± 0.14,794 ± 182,–,–,–,–,–,–
"[2H]C([2H])([2H])Oc1ccc(-n2nc3c4ccc(Br)cc4[nH]cc-3c2=O)cn1 [DK-II-58-1, 7-Bromo-2-(6-methoxy-d3-pyridin-3-yl)-2,5-dihydro-3H-pyrazolo[4,3-c]quinolin-3-one]",98.39 ± 0.06,4250 ± 0.001,97.8 ± 0.06,2341 ± 0.001,–,–,–,–,–,–
